Results taken from patent EP2119434A1, “Use of heterosidic flavonoid derivatives for therapy of stem cell cancers” (INSTITUT NATIONAL DE LA SANTE ET DE LA RECHERCHE MEDICALE …, priority 2008, dated 2009).

Tested on: U937
Test: Adhesion and cytotoxic assay (CAM-DR protocol, fibronectin), cell viability
Type: cell-based
Details: in vitro, adherent U937 (not shown)
Source text: Fresh AML cells were obtained from bone marrow of patients upon informed consent, using Ficoll-Hypaque density-gradient centrifugation. […] For in vitro experiments, blasts were resuspended in IMDM. All patients were diagnosed according to WHO classification at the Hematology Department of Toulouse University Hospital (France). Normal bone marrow CD34+ and CD34- hematopoietic cells were harvested from healthy volunteers upon informed consent and obtained after positive selection of CD34-expressing cells by the means of immunomagnetic separation column (Miltenyi Biotech, Bergisch Gladbach, Germany). Fresh blood samples were collected from healthy adult donors and PBMC (Peripheral Blood Mononuclear Cells) were prepared on a Ficoll-Paque density gradient by centrifugation (800 g, 30 min at room temperature).
Adhesion assays were performed in 96-well plates coated overnight at 4°C with 40 µg/mL of human fibronectin (Roche Molecular Biochemicals, Mannheim, Germany) in a final volume of 50 µL in PBS. Each well was blocked with 1% fatty acid-free BSA in PBS, 1 h at room temperature and washed with PBS before seeding the cells. Cells were diluted at 3x10^5/mL overnight and then were serum starved for 1 h at 1x10^6/mL, incubated or not with plant extract/fraction and purified alkaloid or flavonoid compounds. Control assays were treated with corresponding solvents (water, water/ethanol, DMSO) at a 1/100 dilution. Cells were then allowed to adhere on fibronectin (10^5 cells/well) for 1 h at 37°C or maintained in suspension. In some experiments, both cells in suspension and adherent were treated with 0.5 µM daunorubicin (DNR) (Laboratoire Roger Bellon, Neuilly-sur-Seine, France) for 1 h at 37°C. At the end of the incubation period, cells were washed and incubated in serum containing medium for 24 h at 37°C. Cell viability was then quantified by methyl thiazolyl tetrazolium (MTT) assay (Sigma) or by the Annexin V-FITC detection kit from BD PharMingen. Experiments were performed in triplicate and results were evaluated as the percentage of surviving cells compared to the control group.
Aqueous extracts were prepared from dried H. scoparia leaves and serial dilutions were assayed for cytotoxicity over leukemic cells either in suspension or in adhesion following CAM-DR protocol.

| Compound | specific proapoptotic effect on adherent U937 cells |
| --- | --- |
| NCC(O)c1ccc(O)cc1 (stereo not shown) [norsynephrine] | none of these compounds displayed a specific proapoptotic effect |
| COc1cc(O)c2c(=O)c(O)c(-c3ccc(O)c(O)c3)oc2c1 [rhamnetin] | none of these compounds displayed a specific proapoptotic effect |
| NCCc1c[nH]c2ccccc12 [tryptamine] | none of these compounds displayed a specific proapoptotic effect |
| N-methylisosalsoline | none of these compounds displayed a specific proapoptotic effect |
